Measurements reported in patent publication US5004758A, “Water soluble camptothecin analogs useful for inhibiting the growth of animal tumor cells” (priority 1988, dated 1991).
Values joined by “and” are separate entries in the source; they are usually repeats but may differ in a detail not shown here. Equal values may be shown once. Where a name gives a salt, the structure may show the parent alone. Read-outs that look alike come from different tables or passages of the source.

Assays:
[1] = tested on: sc colon adenocarcinoma 38
Procedure: Inhibition of tumor growth (TGI) is based on mean tumor volume of groups of 7 or 8 mice relative to untreated controls. Tumors were measured between Days 12 and 19 (except Day 24 for Colon 51 and Day 31 for Colon 38).
(§2) Tumors used in these studies are maintained by serial transplantation in syngeneic strains of mice C57BL/6 for Lewis lung carcinoma, B16 melanoma and its F10 subline, M5076 sarcoma and colon adenocarcinoma 38; BALB/c for colon carcinoma 26, ADJ-PC6 plasmacytoma Madison lung carcinoma and colon adenocarcinoma 51, C3H for mammary adenocarcinoma 16/c. With the exception of the M5076 sarcoma, which is maintained as a i.p ascites cell suspension, all of the tumors were serially transplanted as s.c. solid tumors.
(§3) For therapeutic trials, tumors were aseptically removed from donor mice and prepared for implantation s.c. into test animals. The test animals for Lewis lung carcinoma, B16 melanoma and its F10 subline, M5076 sarcoma and colon adenocarcinoma 38 are syngeneic female F1 hybrid B6D2F mice (C57B1/6×DBA/2). ADJ-PC6 plasmacytoma and colon carcinoma 26 are evaluated in female BALB/c mice. Madison lung carcinoma and colon adenocarcinoma 51 are evaluated in syngeneic female F1 hybrid CD2F1 mice (BALB/c×DBA/2). Mammary adenocarcinoma 16/c is evaluated in female C3H mice. The inoculum varies with the tumor. Colon adenocarcinomas 38 is implanted as 2 mm fragments by trochar. M5076 sarcoma and ADJ-PC6 plasmacytoma are implanted as cell suspensions at 5×10^6 and 2×10^6 cells per mouse, respectively. Colon carcinoma 26, colon adenocarcinoma 51, Lewis lung carcinoma, Madison lung carcinoma and B16 melanoma and its F10 subline are implanted as tumor breis prepared as described above in a volume of 0.5 ml. The brei concentration was 10 percent (w:v) except for colon carcinoma 26 for which the brei concentration was 5 percent (w:v). After tumor inoculation, mice are randomized to treatment groups of 7 or 8 mice. In each experiment, there are three groups of untreated control mice.
(§4) Drugs are dissolved or suspended in appropriate aqueous vehicles and given by a variety of routes of administration and treatment schedules over a range of dosage levels. Animals are housed in shoebox cages and are monitored daily for mortality. […] Time for tumor measurement is dependent on the different rates of tumor growth of the different tumors: the most rapidly growing tumors such as the Lewis and Madison lung tumors, B16 melanoma and its F10 subline were measured between Days 12 and 16. The slower growing tumors were measured at later time points--17 days for M5076 sarcoma, 16 or 19 days for mammary adenocarcinoma 16/c, 19 days for ADJ-PC6 plasmacytoma and colon carcinoma 26, 24 days for colon adenocarcinoma 51, and 31 days for colon adenocarcinoma 38.

[2] = in vivo; conditions: mouse, ip
Text: Tumors used in these studies P388 leukemia, L1210 leukemia and Lewis lung carcinoma--are maintained by serial transplantation in syngeneic strains of mice, DBA/2 for the leukemias and C57B1/6 for Lewis lung carcinoma. The leukemias are serially transplanted i.p. as ascites cell suspensions while the Lewis lung carcinoma is serially transplanted as a s.c. solid tumor.
For therapeutic trials, tumors were aseptically removed from donor mice and prepared as suspensions for implantation into test animals which for each tumor are syngeneic female F1 hybrid B6D2F1 mice (C57B1/6×DBA/2). The inoculum level varies with the type of tumor: P388 leukemia is inoculated at 10^6 cells per mouse, L1210 leukemia at 10^5 or 10^6 cells per mouse, and Lewis lung carcinoma at 0.25 ml of a 10 percent (w:v) brei. […] After tumor inoculation, mice are randomized to treatment groups of 6 to 8 mice each. In each experiment, there are three groups of untreated control mice.
Drugs are dissolved or suspended in appropriate aqueous vehicles and given i.p. or i.v. on various treatment schedules over a range of dosage levels. Animals are housed in shoebox cages and monitored daily for mortality for 30 (L1210), 45 (P388) or 60 (Lewis lung) days.

[3] = in vivo; conditions: mouse, ip; remark: listed apart in the source
Text: (§5) Tumors used in these studies--P388 leukemia and its doxorbicin--and mitoxanrone-resistant sublines, L1210 leukemia, B16 melanoma, B16 melanoma/F10 subline, M5076 sarcoma and colon carcinoma 26--are maintained by serial transplantation in syngeneic strains of mice. For the leukemias, these tumors are maintained in DBA/2 mice. The M5076 sarcoma, the B16 melanoma and its F10 subline are maintained in C57B1/6 mice and the colon sarcinoma 26 is maintained in BALB/c mice. The leukemias and the M5076 sarcoma are serially transplanted i.p. as ascites cell suspensions while the B16 melanoma lines and the colon carcinoma 26 are serially transplanted as s.c. solid tumors.
(§6) For therapeutic trials, tumors are aseptically removed from donor mice and prepared as suspensions for implantation ip into test animals. The test animals for the colon carcinoma 26 are female BALB/c mice (20-25 gm). The test animals for the other tumor models are syngeneic female F1 hybrid B6D2F1 mice (C57B1/6 x DBA/2). The inoculum level varies with the type of tumor: P388 leukemia is inoculated at 10^6 cells per mouse, L1210 leukemia at 10^5 or 10^6 cells per mouse, M5076 sarcoma at 5×10^6 cells per mouse. For implantation of the B16 melanoma lines and the colon carcinoma 26, s.c. tumors from donor mice are minced and homogenized in loose fitting teflon glass homogenizer to give a tumor brei. The inoculum levels are 0.5 ml of a 10 percent (w:v) brei of the B16 melanoma lines and 0.5 ml of a 5 percent (w:v) brei of colon carcinoma 26. After tumor inoculation, mice randomized to treatment groups comprised of 6-8 mice each. In each experiment, there are three groups of untreated control mice. Drugs are dissolved or suspended in appropriate aqueous vehicles and given by a variety of routes and schedules of administration over a range of dose levels. Animals are housed in shoebox cages and are monitored daily for mortality for 30 (L1210), 45 (P388) or 60 (B16, M5076, colon 26) days.

[4] = in vivo; conditions: mouse, ip; remark: listed apart in the source
Text: as §5, §6

[5] = Aqueous solubility; type: physicochemical
[6] = tested on: sc B16 melanoma; conditions: for ILS: mouse, in vivo; for Tumor growth inhibition (TGI) / Mice without Palpable Tumors: sc B16
Text: Inhibition of tumor growth (TGI) is based on mean tumor volume of groups of 7 or 8 mice relative to untreated controls.
as §2, §3, §4
For highly metastatic tumors including: Lewis and Madison lung tumors, colon carcinoma 26 and B16 melanoma and its F10 subline, tumor-bearing mice are monitored for survival time as well. For the less mestastatic tumor models, tumor-bearing mice are killed following tumor measurement. In this setting, an increase in lifespan of ≥30 percent is considered to be evidence of drug activity.

[7] = tested on: sc colon adenocarcinoma 51; type: in vivo, mouse; conditions: for Tumor growth inhibition (TGI) / Mice without Palpable Tumors: sc Colon 51
Text: (§1) The inoculum varies with the tumor.

[8] = tested on: sc Lewis lung carcinoma; type: in vivo, mouse; conditions: mouse, in vivo
Text: as §1

[9] = tested on: sc mammary adenocarcinoma 16/c; test: in vivo; design: species or system mouse; conditions: mouse, in vivo
Text: as §1

[10] = in vivo; design: species or system mouse; conditions: mouse, in vivo, ip
Text: as §1

[11] = tested on: P388/Mitoxantrone; test: ip P388/Mitoxantrone multidrug resistant subline in mice; conditions: for ILS / NCK (net tumor cell kill): P388/Mitoxantrone, ip, Days 1 and 5
Procedure: (§7) Increase in lifespan (ILS) is based on median survival time of groups of 6 mice. Net tumor cell kill (NCK) is calculated from median survival time by standard methods, since survival time is a linear function of the log tumor cell burden.
For the leukemias, these tumors are maintained in DBA/2 mice. […] The leukemias and the M5076 sarcoma are serially transplanted i.p. as ascites cell suspensions while the B16 melanoma lines and the colon carcinoma 26 are serially transplanted as s.c. solid tumors.
For therapeutic trials, tumors are aseptically removed from donor mice and prepared as suspensions for implantation ip into test animals. […] The test animals for the other tumor models are syngeneic female F1 hybrid B6D2F1 mice (C57B1/6 x DBA/2). The inoculum level varies with the type of tumor: P388 leukemia is inoculated at 10^6 cells per mouse, L1210 leukemia at 10^5 or 10^6 cells per mouse, M5076 sarcoma at 5×10^6 cells per mouse. […] After tumor inoculation, mice randomized to treatment groups comprised of 6-8 mice each. In each experiment, there are three groups of untreated control mice. Drugs are dissolved or suspended in appropriate aqueous vehicles and given by a variety of routes and schedules of administration over a range of dose levels. Animals are housed in shoebox cages and are monitored daily for mortality for 30 (L1210), 45 (P388) or 60 (B16, M5076, colon 26) days.

[12] = tested on: ip B16 melanoma; conditions: mouse, in vivo
Text: as §5, §6

[13] = tested on: ip P388 leukemia; conditions: mouse, in vivo, ip
Procedure: as §7
(§8) Animals were implanted ip with 10^6 cells. Increase in lifespan (ILS) is based on median survival time of groups of 6 mice relative to untreated controls. Long-term survivors were tumor-free on Day 45.
as §5, §6

[14] = tested on: ip B16 melanoma/F10 subline; conditions: mouse, in vivo; for Increase in lifespan (ILS): ip
Text: as §5, §6

[15] = in vivo; conditions: mouse, ip; remark: listed apart in the source
Procedure: as §7, §8, §5, §6

[16] = tested on: ip colon carcinoma 26; test: ip-implanted colon carcinoma 26 in mice; type: in vivo, mouse; conditions: ip Colon 26, B/ip (Days 1, 5, 9 and 13)
Text: as §5, §6

## CC[C@@]1(O)C(=O)OCc2c1cc1n(c2=O)Cc2cc3c(CN(C)C)c(O)ccc3nc2-1 [Compound No. 1S, (20 S) 9-Dimethylaminomethyl-10-hydroxycamptothecin Acetate Salt]
[1]; mouse, in vivo
  inhibition at two dose levels: > 90
[1]; mouse, in vivo, 0.78 mg/kg
  Mice without Palpable Tumors: 2/7
[1]; mouse, in vivo, 1.3 mg/kg
  Mice without Palpable Tumors: 4/7
[1]; mouse, in vivo, 2.2 mg/kg
  Mice without Palpable Tumors: 4/7
[1]; mouse, in vivo, 3.6 mg/kg
  Mice without Palpable Tumors: 6/7
[1]; mouse, in vivo, 6 mg/kg
  Mice without Palpable Tumors: 5/7
[1]; mouse, in vivo, sc
  Increase in Lifespan (ILS) or Inhibition of Tumor Growth (TGI): 96 % TGI
[1]; sc Colon 38, G/ip (Days 3, 10, 17 and 24), 3.1 mg/kg/injection
  Tumor growth inhibition (TGI): 0%
[1]; sc Colon 38, G/ip (Days 3, 10, 17 and 24), 5.2 mg/kg/injection
  Tumor growth inhibition (TGI): 0%
[1]; sc Colon 38, G/ip (Days 3, 10, 17 and 24), 8.6 mg/kg/injection
  Tumor growth inhibition (TGI): 55%
[1]; sc Colon 38, G/ip (Days 3, 10, 17 and 24), 14 mg/kg/injection
  Tumor growth inhibition (TGI): 78%
[1]; sc Colon 38, G/ip (Days 3, 10, 17 and 24), 24 mg/kg/injection
  Tumor growth inhibition (TGI): 89%
[1]; sc Colon 38, G/ip, 3.1 mg/kg/injection
  Mice without Palpable Tumors: 2/7
[1]; sc Colon 38, G/ip, 5.2 mg/kg/injection
  Mice without Palpable Tumors: 1/7
[1]; sc Colon 38, G/ip, 8.6 mg/kg/injection
  Mice without Palpable Tumors: 3/7
[1]; sc Colon 38, G/ip, 14 mg/kg/injection
  Mice without Palpable Tumors: 5/8
[1]; sc Colon 38, G/ip, 24 mg/kg/injection
  Mice without Palpable Tumors: 4/7
[1]; sc Colon 38, H/ip (every 3 hours x4 on Days 3, 10, 14 and 24), 0.78 mg/kg/injection
  Tumor growth inhibition (TGI): 53%
[1]; sc Colon 38, H/ip (every 3 hours x4 on Days 3, 10, 14 and 24), 1.3 mg/kg/injection
  Tumor growth inhibition (TGI): 68%
[1]; sc Colon 38, H/ip (every 3 hours x4 on Days 3, 10, 14 and 24), 2.2 mg/kg/injection
  Tumor growth inhibition (TGI): 74%
[1]; sc Colon 38, H/ip (every 3 hours x4 on Days 3, 10, 14 and 24), 3.6 mg/kg/injection
  Tumor growth inhibition (TGI): 93%
[1]; sc Colon 38, H/ip (every 3 hours x4 on Days 3, 10, 14 and 24), 6 mg/kg/injection
  Tumor growth inhibition (TGI): 96%
[2]
  MTD: 15 mg/kg
[3]
  MTD: 15 mg/kg
[4]
  MTD: 15 mg/kg
[5]
  solubility in water / aqueous vehicles: water-soluble
[6]
  ILS: 53
[6]; 24 mg/kg
  ILS: 39
[6]; sc
  ILS: 52
[6]; C/ip (every 3 hours x4 on Days 1, 5 and 9), 0.78 mg/kg/injection
  Tumor growth inhibition (TGI): 46%
[6]; C/ip (every 3 hours x4 on Days 1, 5 and 9), 1.3 mg/kg/injection
  Tumor growth inhibition (TGI): 64%
[6]; C/ip (every 3 hours x4 on Days 1, 5 and 9), 2.2 mg/kg/injection
  Tumor growth inhibition (TGI): 92%
[6]; C/ip (every 3 hours x4 on Days 1, 5 and 9), 3.6 mg/kg/injection
  Tumor growth inhibition (TGI): 100%
[6]; C/ip (every 3 hours x4 on Days 1, 5 and 9), 6 mg/kg/injection
  Tumor growth inhibition (TGI): 100%
[6]; C/ip, 0.78 mg/kg/injection
  Mice without Palpable Tumors: 1/8
[6]; C/ip, 1.3 mg/kg/injection
  Mice without Palpable Tumors: 1/8
[6]; C/ip, 2.2 mg/kg/injection
  Mice without Palpable Tumors: 2/8
[6]; C/ip, 3.6 mg/kg/injection
  Mice without Palpable Tumors: 7/7
[6]; C/ip, 6 mg/kg/injection
  Mice without Palpable Tumors: 7/7
[6]; F/ip (Days 1, 5 and 9), 3.1 mg/kg/injection
  Tumor growth inhibition (TGI): 63%
[6]; F/ip (Days 1, 5 and 9), 5.2 mg/kg/injection
  Tumor growth inhibition (TGI): 20%
[6]; F/ip (Days 1, 5 and 9), 8.6 mg/kg/injection
  Tumor growth inhibition (TGI): 63%
[6]; F/ip (Days 1, 5 and 9), 14 mg/kg/injection
  Tumor growth inhibition (TGI): 57%
[6]; F/ip (Days 1, 5 and 9), 24 mg/kg/injection
  Tumor growth inhibition (TGI): 99%
[6]; F/ip, 3.1 mg/kg/injection
  Mice without Palpable Tumors: 2/8
[6]; F/ip, 5.2 mg/kg/injection
  Mice without Palpable Tumors: 1/8
[6]; F/ip, 8.6 mg/kg/injection
  Mice without Palpable Tumors: 3/8
[6]; F/ip, 14 mg/kg/injection
  Mice without Palpable Tumors: 3/8
[6]; F/ip, 24 mg/kg/injection
  Mice without Palpable Tumors: 7/8
[6]; F/iv (Days 1, 5 and 9), 3.2 mg/kg/injection
  Tumor growth inhibition (TGI): 54%
[6]; F/iv (Days 1, 5 and 9), 5.4 mg/kg/injection
  Tumor growth inhibition (TGI): 79%
[6]; F/iv (Days 1, 5 and 9), 9 mg/kg/injection
  Tumor growth inhibition (TGI): 96%
[6]; F/iv (Days 1, 5 and 9), 15 mg/kg/injection
  Tumor growth inhibition (TGI): 99%
[6]; F/iv (Days 1, 5 and 9), 25 mg/kg/injection
  Tumor growth inhibition (TGI): toxic
[6]; F/iv, 3.2 mg/kg/injection
  Mice without Palpable Tumors: 2/8
[6]; F/iv, 5.4 mg/kg/injection
  Mice without Palpable Tumors: 3/8
[6]; F/iv, 9 mg/kg/injection
  Mice without Palpable Tumors: 6/8
[6]; F/iv, 15 mg/kg/injection
  Mice without Palpable Tumors: 7/8
[6]; sc B16 Melanoma, optimal doses and optimal schedules
  Increase in Lifespan (ILS) or Inhibition of Tumor Growth (TGI): 100 % TGI
[7]; G/ip (Days 3, 10, 17 and 24), 3.1 mg/kg/injection
  Tumor growth inhibition (TGI): 34%
[7]; G/ip (Days 3, 10, 17 and 24), 5.2 mg/kg/injection
  Tumor growth inhibition (TGI): 36%
[7]; G/ip (Days 3, 10, 17 and 24), 8.6 mg/kg/injection
  Tumor growth inhibition (TGI): 53%
[7]; G/ip (Days 3, 10, 17 and 24), 14 mg/kg/injection
  Tumor growth inhibition (TGI): 76%
[7]; G/ip (Days 3, 10, 17 and 24), 24 mg/kg/injection
  Tumor growth inhibition (TGI): 88%
[7]; G/ip, 8.6 mg/kg/injection
  Mice without Palpable Tumors: 1/8
[7]; G/ip, 14 mg/kg/injection
  Mice without Palpable Tumors: 1/8
[7]; G/ip, 24 mg/kg/injection
  Mice without Palpable Tumors: 3/8
[7]; H/ip (every 3 hours x4 on Days 3, 10, 14 and 24), 0.47 mg/kg/injection
  Tumor growth inhibition (TGI): 37%
[7]; H/ip (every 3 hours x4 on Days 3, 10, 14 and 24), 0.78 mg/kg/injection
  Tumor growth inhibition (TGI): 73%
[7]; H/ip (every 3 hours x4 on Days 3, 10, 14 and 24), 1.3 mg/kg/injection
  Tumor growth inhibition (TGI): 88%
[7]; H/ip (every 3 hours x4 on Days 3, 10, 14 and 24), 2.2 mg/kg/injection
  Tumor growth inhibition (TGI): 89%
[7]; H/ip (every 3 hours x4 on Days 3, 10, 14 and 24), 3.6 mg/kg/injection
  Tumor growth inhibition (TGI): 92%
[7]; H/ip, 0.78 mg/kg/injection
  Mice without Palpable Tumors: 1/8
[7]; H/ip, 1.3 mg/kg/injection
  Mice without Palpable Tumors: 3/8
[7]; H/ip, 2.2 mg/kg/injection
  Mice without Palpable Tumors: 4/8
[7]; H/ip, 3.6 mg/kg/injection
  Mice without Palpable Tumors: 4/8
[7]; sc Colon Adenocarcinoma 51, optimal doses and optimal schedules
  Increase in Lifespan (ILS) or Inhibition of Tumor Growth (TGI): 92 % TGI
[8]
  bioavailability upon oral administration: excellent bioavailability upon oral administration
[8]; 3.2 mg/kg
  Tumor growth inhibition (TGI): 31%
[8]; 5.4 mg/kg, Acetate Salt
  Mice without Palpable Tumors: 2/8 and 4/8
  Tumor growth inhibition (TGI): 68% and 87%
[8]; 5.8 mg/kg
  Tumor growth inhibition (TGI): 51%
[8]; 9 mg/kg
  longterm, tumorfree survivors: 2/8
[8]; 9 mg/kg, Acetate Salt
  Tumor growth inhibition (TGI): 99% and 93%
[8]; 9.7 mg/kg
  Mice without Palpable Tumors: 2/8
  Tumor growth inhibition (TGI): 89%
[8]; 15 mg/kg
  Tumor growth inhibition (TGI): 95%
  longterm, tumorfree survivors: 4 of 8
[8]; 15 mg/kg, Acetate Salt
  Mice without Palpable Tumors: 8/8 and 3/8
  Tumor growth inhibition (TGI): 100%
  longterm, tumorfree survivors: 4/8
[8]; 16 mg/kg
  Mice without Palpable Tumors: 1/8
  Tumor growth inhibition (TGI): 90%
[8]; 25 mg/kg
  Mice without Palpable Tumors: 5/8
  Tumor growth inhibition (TGI): toxic
[8]; 27 mg/kg
  Mice without Palpable Tumors: 4/8
[8]; 45 mg/kg
  Tumor growth inhibition (TGI): toxic
[8]; sc
  Increase in Lifespan (ILS) or Inhibition of Tumor Growth (TGI): Curative
[9]; 5 mg/kg
  Mice without Palpable Tumors: 2/8
  Tumor growth inhibition (TGI): 61%
[9]; 10 mg/kg
  Mice without Palpable Tumors: 5/8
[9]; 20 mg/kg
  Tumor growth inhibition (TGI): toxic
[9]; […]
  Mice without Palpable Tumors: 1/8
[9]; sc
  Increase in Lifespan (ILS) or Inhibition of Tumor Growth (TGI): 96 % TGI
  Tumor growth inhibition (TGI): 73
[10]
  MTD: 10 mg/kg
[11]; 3.2 mg/kg
  ILS: 29%
  NCK (net tumor cell kill): 0 log
[11]; 5.4 mg/kg
  ILS: 57%
  NCK (net tumor cell kill): 2.1 log
[11]; 9 mg/kg
  ILS: 79%
  NCK (net tumor cell kill): 3.6 log
[11]; 15 mg/kg
  NCK (net tumor cell kill): 5.7 log
[11]; 25 mg/kg
  ILS: toxic
[11]; P388/mitoxantrone in mice
  sensitivity / resistance of subline: retained sensitivity
[12]
  ILS: 130
[12]; ip
  Increase in Lifespan (ILS) or Inhibition of Tumor Growth (TGI): 152 % ILS
[12]; ip, 3.2 mg/kg
  Increase in lifespan (ILS): 43%
[12]; ip, 5.4 mg/kg
  Increase in lifespan (ILS): 52%
[12]; ip, 25 mg/kg
  Increase in lifespan (ILS): toxic
[13]
  Increase in Lifespan (ILS) or Inhibition of Tumor Growth (TGI): Curative
  long term survivors: 2/6
[13]; 15 mg/kg
  Long-Term Survivors: 4/6
[13]; 30 mg/kg
  Increase in lifespan (ILS): toxic
[14]
  increases in lifespan at two lower doses: > 40
[14]; 3.2 mg/kg
  Increase in lifespan (ILS): 37%
[14]; 5.4 mg/kg
  Increase in lifespan (ILS): 63%
[14]; 9 mg/kg
  Increase in lifespan (ILS): 68%
[14]; 25 mg/kg
  Increase in lifespan (ILS): toxic
[15]
  MTD: 15 mg/kg
[16]; 5 mg/kg/injection
  Increase in lifespan (ILS): 5%
[16]; 10 mg/kg/injection
  Increase in lifespan (ILS): 25%
[16]; 20 mg/kg/injection
  Increase in lifespan (ILS): toxic
[16]; 40 mg/kg/injection
  Increase in lifespan (ILS): toxic
